Results from patent US11858934B1, “Substituted pyrido[4′,3′:5,6]pyrimido[1,2-a]indoles as CK2 inhibitors” (KING FAISAL UNIVERSITY, priority 2023, dated 2024).

What was measured:
MCF7 (breast) = assay: MTT in vitro cytotoxic activity assay, MCF7; type: cell-based; conditions: Homo sapiens; MCF7 (breast) cells, exposed for 96 hours; read-out: IC50, 50% inhibition of cell proliferation
Method: (§1) Compounds 1-12 were screened for their in vitro cytotoxic activity utilizing a 3-(4,5-dimethyl-thiazol-2-yl)-2,5-diphenyltetrazolium bromide (MTT) assay against selected cancer human cell lines consisting of PC3 (prostate), HCT116 (colon), A375 (melanoma), H1299 (lung), MIAPaCa-2 (pancreas), HL60 (leukemia), MCF7 (breast), MDA-MB-231 (breast) (T. Mosmann, J. Immunol. Meth., 1983, 65, 55-63). The cells were cultured at 37° C. in RMPI1640 medium supplemented with 10% fetal bovine serum, 50 IU/mL penicillin, and 50 μg/mL streptomycin in a 5% CO2 incubator. All cells were sub-cultured 3 times/week by trypsinisation. Viable cells were seeded and allowed to adhere for 12 h before a test drug was added in 96-well plates at an initial density of 1.0×10^5 cells/mL. Tumour cell lines were separately exposed to various concentrations of the tested compounds followed by incubation at a temperature of 37° C. during 96 h inside a medium of fresh RMPI 1640. Cells were subsequently incubated at 37° C. using MTT at 0.5 mg/mL during 4 h. After removal of supernatant, formazan crystals were dissolved in isopropanol and the optical density was measured at 570 nm. CX-4945 was used as a positive control.

A375 (melanoma) = assay: MTT in vitro cytotoxic activity assay, A375; type: cell-based; conditions: Homo sapiens, A-375; A375 (melanoma) cells, exposed for 96 hours; read-out: IC50, 50% inhibition of cell proliferation
Method: as §1

HCT116 (colon) = assay: MTT in vitro cytotoxic activity assay, HCT116; type: cell-based; conditions: Homo sapiens, HCT-116; HCT116 (colon) cells, exposed for 96 hours; read-out: IC50, 50% inhibition of cell proliferation
Method: as §1

H1299 (lung) = assay: MTT in vitro cytotoxic activity assay, H1299; type: cell-based; conditions: Homo sapiens, NCI-H1299; H1299 (lung) cells, exposed for 96 hours; read-out: IC50, 50% inhibition of cell proliferation
Method: as §1

MIAPaCa-2 (pancreas) = assay: MTT in vitro cytotoxic activity assay, MIAPaCa-2; type: cell-based; conditions: Homo sapiens, MIA PaCa-2; MIAPaCa-2 (pancreas) cells, exposed for 96 hours; read-out: IC50, 50% inhibition of cell proliferation
Method: as §1

PC3 (prostate) = assay: MTT in vitro cytotoxic activity assay, PC3; type: cell-based; conditions: Homo sapiens, Prostate cell; PC3 (prostate) cells, exposed for 96 hours; read-out: IC50, 50% inhibition of cell proliferation
Method: as §1

MDA-MB-231 (breast) = assay: MTT in vitro cytotoxic activity assay, MDA-MB-231; type: cell-based; conditions: Homo sapiens; MDA-MB-231 (breast) cells, exposed for 96 hours; read-out: IC50, 50% inhibition of cell proliferation
Method: as §1

HL60 (leukemia) = assay: MTT in vitro cytotoxic activity assay, HL60; type: cell-based; conditions: Homo sapiens, HL-60; HL60 (leukemia) cells, exposed for 96 hours; read-out: IC50, 50% inhibition of cell proliferation
Method: as §1

recombinant human CK2 = molecular target: T1, recombinant human CK2 (Homo sapiens, UniProt P68400); assay: CK2 kinase assay (33P-ATP, substrate peptide RRRDDDSDDD); type: biochemical; conditions: final ATP concentration 15 μM, 10 min at 30° C; read-out: IC50, protein kinase CK2 activity
T1 construct: purchased Millipore
Method: CK2 Kinase Assay was conducted using the protocol as described in Pierre F. et al; J. Med. Chem. 2011, 54, 635-654. The tested compounds in aqueous solution were added at a volume of 10 μL to a reaction mixture comprising 10 μL of assay dilution buffer (ADB; 20 mM MOPS, pH 7.2, 25 mM (β-glycerol phosphate, 5 mM EGTA, 1 mM sodium orthovanadate, and 1 mM dithiothreitol), 10 μL of substrate peptide (RRRDDDSDDD, dissolved in ADB at a concentration of 1 mM), 10 μL of recombinant human CK2 (RRfββ-holoenzyme, 25 ng dissolved in ADB; Millipore). Reactions were initiated by the addition of 10 μL of ATP solution (90% 75 mMMgCl2, 75 μM ATP (final ATP concentration: 15 μM) dissolved in ADB; 10% [γ-33P] ATP (stock 1 mCi/100 μL; 3000 Ci/mmol (Perkin-Elmer) and maintained for 10 min at 30° C. The reactions were quenched with 100 μL of 0.75% phosphoric acid and then transferred to and filtered through a phosphor cellulose filter plate (Millipore). After washing each well five times with 0.75% phosphoric acid, the plate was dried under vacuum for 5 min and, following the addition of 15 μL of scintillation fluid to each well, the residual radioactivity was measured using a Wallac luminescence counter. The IC50 values were derived from eight concentrations of test inhibitors.

T1 sequence (P68400 whole entry): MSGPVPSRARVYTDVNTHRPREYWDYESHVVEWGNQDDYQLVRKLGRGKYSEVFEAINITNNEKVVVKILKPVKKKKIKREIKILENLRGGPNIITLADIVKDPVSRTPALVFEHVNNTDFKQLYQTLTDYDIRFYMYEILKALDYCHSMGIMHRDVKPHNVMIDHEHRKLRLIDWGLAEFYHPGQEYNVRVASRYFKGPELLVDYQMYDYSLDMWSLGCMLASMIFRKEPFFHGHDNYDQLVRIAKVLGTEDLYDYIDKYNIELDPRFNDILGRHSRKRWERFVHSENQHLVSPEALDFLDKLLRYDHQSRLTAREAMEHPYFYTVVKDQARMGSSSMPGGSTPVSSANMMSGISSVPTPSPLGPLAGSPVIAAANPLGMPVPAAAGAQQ
T1 sequence (P67870 whole entry partner): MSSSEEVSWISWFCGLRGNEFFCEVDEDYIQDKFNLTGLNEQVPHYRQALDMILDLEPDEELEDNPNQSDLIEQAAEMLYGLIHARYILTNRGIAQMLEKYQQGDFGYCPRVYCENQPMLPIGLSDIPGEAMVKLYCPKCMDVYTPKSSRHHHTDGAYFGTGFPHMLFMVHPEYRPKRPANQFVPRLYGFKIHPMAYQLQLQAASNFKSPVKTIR

IC50 (recombinant human CK2): 15 nM
SMILES: O=C(O)c1ccc2c(c1)cc1nc(Nc3cccc(Cl)c3)c3ccncc3n12 [Compound 1, 5-((3-chlorophenyl)amino)pyrido[4′,3′:5,6]pyrimido[1,2-a]indole-9-carboxylic acid]
IC50 (MCF7 (breast)): 6900 nM
IC50 (A375 (melanoma)): 3500 nM
IC50 (HCT116 (colon)): 1800 nM
IC50 (H1299 (lung)): 1900 nM
IC50 (MIAPaCa-2 (pancreas)): 1400 nM
IC50 (PC3 (prostate)): 2200 nM
IC50 (MDA-MB-231 (breast)): 5500 nM
IC50 (HL60 (leukemia)): 3300 nM
